Test results published in US7151109B2, “Pyrazolo[1,5-a]pyridine derivatives and their use as neurotransmitter modulators” (Pharmacia & Upjohn Company LLC, priority 2002, dated 2006).

Compound `CCCN(CCC)c1c(CC)nn2c(-c3ccc(OC)cc3C)cccc12` [Example 12, 2-Ethyl-7-(4-methoxy-2-methylphenyl)-N,N-dipropylpyrazolo[1,5-a]pyridin-3-amine] has a melting point of 76 to 79 °C.
For `CCCN(CCC)c1c(CC)nn2c(-c3ccc(OC)cc3Cl)cccc12` [Example 13, 7-(2-Chloro-4-methoxyphenyl)-2-ethyl-N,N-dipropylpyrazolo[1,5-a]pyridin-3-amine], the melting point was 73.6 to 76 °C.
Compound `CCCN(CCC)c1c(CC)nn2c(-c3ccc(N(C)C)cc3C(F)(F)F)cccc12` [Example 14, 7-[4-(Dimethylamino)-2-(trifluoromethyl)phenyl]-2-ethyl-N,N-dipropylpyrazolo[1,5-a]pyridin-3-amine] has a melting point of 69.1 to 79.8 °C.
With `CCCN(CCC)c1c(CC)nn2c(-c3ccc(N(C)C)cc3Cl)cccc12` [Example 16, 7-[2-Chloro-4-(dimethylamino)phenyl]-2-ethyl-N,N-dipropylpyrazolo[1,5-a]pyridin-3-amine] the melting point was 132.8 to 134.3 °C.
`CCCN(CCC)c1c(CC)nn2c(-c3ccc(Cl)cc3Cl)cccc12.O=C(O)/C=C\C(=O)O` [Example 11, 7-(2,4-Dichlorophenyl)-2-ethyl-N,N-dipropylpyrazolo[1,5-a]pyridin-3-amine maleic acid salt] gave a melting point of 106 to 112 °C.
`COc1ccc(-c2cccc3c(C(C)C)c(C)nn23)c(Cl)c1` [Example 40, 7-(2-Chloro-4-methoxyphenyl)-3-isopropyl-2-methylpyrazolo[1,5-a]pyridine] showed a melting point of 111.9 to 114.9 °C.
Compound `CCc1nn2c(-c3ccc(OC)cc3Cl)cccc2c1N(CCF)CCOC` [Example 25, 7-(2-Chloro-4-methoxyphenyl)-2-ethyl-N-(2-fluoroethyl)-N-(2-methoxyethyl)pyrazolo[1,5-a]pyridin-3-amine] has a melting point of 45.8 to 52.8 °C.
In the case of `CCCN(CCC)c1c(CC)nn2c(-c3cnc(N(C)C)cc3C)cccc12` [Example 18, 7-[6-(Dimethylamino)-4-methylpyridin-3-yl]-2-ethyl-N,N-dipropylpyrazolo[1,5-a]pyridin-3-amine], the melting point is reported as 98.5 to 100.3 °C.
